Each structure is given as a SMILES string.

Holding throughout (assay type): in vivo
Data set [1] concerns root-knot nematode (Meloidogyne spp). Nature of the data set: Nematicide field trial on cucumber: root galling and yield. The note with it: for Average root galling: 0-5 Lamberti scale. Here is the method:
Open ground grown cucumber (Cucumis sativus cv Carine) were grown on sandy soil with a natural root-knot nematode (Meloidogyne spp) population. Soil samples, collected prior to planting, contained on average 8 J2 juveniles per 100 g soil. A program of 4 applications with intervals of about 14 days was started six days after transplantation.
(§1) An experimental pattern at Complete Randomized Blocks with four replicas was adopted. Besides the experimental products, each test also included an untreated control and a treatment with the standard commercial product VYDATE 10L (10%) applied in accordance to label instructions.
[…] The level of nematode attack of the root system at the time of harvesting was assessed by means of the lamberti scoring.

The test system of data set [2] is stubby root nematodes (Paratrichodorus), stunt nematodes (Tylenchorhynchus spp.), root lesion nematodes (Pratylenchus spp.) and root knot nematodes …. Nature of the data set: Nematicide field trial on carrots: % deformed carrots. Here is the method: Garden carrots were grown in the open field. The soil contained high levels of stubby root nematodes (Paratrichodorus), stunt nematodes (Tylenchorhynchus spp.), root lesion nematodes (Pratylenchus spp.) and root knot nematodes (Meloidogyne spp.).
as §1
In carrots, nematodes cause deformation such as stunting, dwarfing, twisting, splitting and bearding. For these experiments, the total percentage of deformed carrots were considered, as these are not marketed for human consumption and are of no commercial interest.
Three different tests have been performed (Tables 9, 10 and 11), each containing an untreated and commercial reference control. All treatments were statistically different from untreated control.

Data set [3] relates to Meloidogyne incognita nematodes. Nature of the data set: Pot Assay 1: Meloidogyne infection of potato, egg masses/galls on roots. The note with it: potato in pot, week 8 after inoculation. Here is the method: 500 ml clay pots were filled with 400 ml of silver sand. One tuber of potato ( Solanum tuberosum cv. Bintje) was planted in the sand. After 2 to 3 weeks incubation, the potato plant was sufficiently developed to be inoculated.
Plants were grown under the usual standard greenhouse conditions at 14° C.-18° C., with 16 hours light and 8 hours dark and 80-90% relative humidity. The pots were watered using individual drippers and fertilizers were added under the form of macro- and micro nutrients according to plant growth requirements. When needed, the plants were sprayed with fungicides and insecticides.
The compounds as described herein were added one day before inoculation. The compounds were dissolved in a 20 ml DMSO-solution and spread over the sand surface. The final concentration is calculated under the assumption that the compound is diffused entirely in the pot. This process occurred during two days at the normal greenhouse conditions described above.
After compound incubation, approximately 1500 juveniles of Meloidogyne incognita nematodes were added to the pots.
The pots were incubated at the described greenhouse conditions until nematode development was completed. At week 8 after inoculation the number of galls formed on the roots was counted after washing off the sandy substrate. Also the effect of the compound on the plant development was recorded.
Every compound was tested in three replicates. Positive control plants were treated with different concentrations of aldicarb, a known nematicide. Negative controls involved 12 replicates of double negative controls (no compound, no nematode), 12 replicates of single negative controls (no compound, no DMSO, with nematode), 24 replicates of DMSO controls (DMSO solution, with nematode).
As assessment of the root development was taken into account.

For a further data set, the system named is Meloidogyne incognita. As to the kind of experiment: Root infestation on agar plate: root knot count on potato microplant roots. The note with it: 60 μM in agar, galls counted 5 weeks after inoculation, four replicates. Here is the method:
9 cm petri dishes were filled with a 15 ml agar. One stem cutting of a potato microplant (Solanum tuberosum cv. Desirée) was placed on top of the agar layer. After 2 to 3 weeks of incubation at 20° C., the root system was sufficiently developed to be inoculated.
The test compounds (see Table 1) were added 2 days before inoculation by way of spreading a 2 ml DMSO-solution with the compound over the agar and allowing the compound to diffuse in the agar during two days at constant temperature of 20° C. During incubation, the plates are protected from light in a dark incubator. The resulting concentration of each compound in each agar plate was 60 μM.
After incubation, approximately 400 axenic juveniles of Meloidogyne incognita species were added to the plate.
The plates were incubated in the dark at a constant temperature of 20° C. and 5 weeks after inoculation the number of galls formed on the roots were determined by counting. Also any toxic effect of the test compounds on the roots was recorded. 8 weeks after inoculation the plates were stored at low temperature.
Each compound was tested in four replicates. Positive controls were treated with different concentrations of Aldicarb, a known nematicide. Negative controls included 5 replicates of double negative controls (no compound, no nematode), 5 replicates of single negative controls (no compound, with nematode) and 5 replicates of DMSO controls (DMSO solution, with nematode).

Data set [4] deals with sugar beet (variety GEA (KWS)). Nature of the data set: Pot Assay 3: phytotoxicity, number of sugar beet plants emerged. Here is the method: (§2) Each compound or compound mixture as described herein was tested in 4 different rates with 4 replicates per rate. One pot per replicate was used in which 18 beava sugar beet seeds (variety GEA (KWS)) were sown. After crop germination, the number of plants was reduced to 10 plants. The 4 rates added to the soil of the tested compounds or compound mixtures were 0.05 mg, 0.20 mg, 1 mg and 5 mg. These amounts translate to field application rates respectively as 30, 120, 600 and 3000 g per hectare.
Phytotoxicity assessments were carried by assessing any possible effects of the chemicals on the crop, such as chlorosis, yellowing, stunting, in comparison to the untreated control without nematodes.

Another data set relates to Heterodera nematode. As to the kind of experiment: Pot Assay 3: Heterodera infection of sugar beet, crop vigor and crop height. The note with it: infested soil.
Source text: The soil used in this assay originated from a Heterodera nematode infested sugar plot of which the infestation was confirmed by means of several soil analyses. Each pot was filled up with a soil mixture composed as follows: a) the infested soil was constituted by silt loam soil (about 600 g/pot) mixed with sterile peat (about 600 g/pot) and sterile cork (about 200 g/pot); b) the sterile soil was instead constituted only by sterile peat (1200 g/pot) and sterile cork (200 g/pot).
as §2
Efficacy of the compounds described herein as nematicide was measured by visual inspection of the crop vigor and the crop height. The crop vigor evaluation is based on a 0-100 scale, where 0 is “no vigor” and 100 is “maximum vigor”. The crop height development is based on a measurement, in cm, per plant, excluding the root system.
Positive control plants were treated with Oxamyl (Vydate 5 G, 5% gr) at a rate of 40 kg fp per ha. Negative controls involved single negative controls (no compound, with nematode infested soil; referenced as “Untreated 1”) and double negative controls (no compound, sterile soil; referenced as “Untreated 2”).

The test system of data set [5] is root-knot nematode (Meloidogyne spp). Nature of the data set: Nematicide field trial on tomato: root galling and yield. The note with it: for Average root galling: 0-5 Lamberti scale. Here is the method:
Open field tomatoes (Lycopersicon esculentum, variety incas) were grown on sandy soil with a natural root-knot nematode (Meloidogyne spp) population. Soil samples, collected prior to planting, contained on average 113 J2 juveniles per 100 g soil. A program of 5 applications with intervals of about 14 days was started two days after transplantation.
as §1
The read-outs are the average yield of the marketable tomatoes per plant (Table 7). The level of nematode attack of the root system at the time of harvesting was assessed by means of the lamberti scoring.

[6] abbreviates: Product Rate 1 (footnote g ai/ha).
[7] abbreviates: Product Rate 2 (footnote g ai/ha).
[8] abbreviates: Product Rate 4 (footnote g ai/ha).
Where [9] appears, read: Product Rate 8 (footnote g ai/ha).

On to `Cc1cc(C2CC2)nc(Nc2ccccc2)n1` [XLIV], for which the “Average yield of marketable fruits” value came to 7.3 kg/plant/pot in data set [1] (Product Rate 500 g ai/ha) and 8.3 kg/plant/pot in data set [1] (Product Rate 1500 g ai/ha). For the same compound, the Average root galling in data set [1] (Product Rate 500 g ai/ha) and in data set [1] (Product Rate 1500 g ai/ha) was 2.5 throughout. In addition, the “% total deformed” value in data set [2] (test of Table 9, Product Rate 500 g ai/ha) was determined as 37.41%; in data set [2] (test of Table 9, Product Rate 1500 g ai/ha), 44.85%; in data set [2] (test of Table 9, Product Rate 3000 g ai/ha), 37.10%. Moreover, the “number of egg masses (galls) on roots, Replicate 3” value (shortened to “number of egg masses … Replicate 3”) is reported as 5 in data set [3] (0.5 μM), 15 in data set [3] (2 μM) and 5 in data set [3] (50 μM). Also, the “number of egg masses (galls) on roots, Replicate 1” value in data set [3] (2 μM) amounted to 20; in data set [3] (10 μM), 20; in data set [3] (50 μM), 15. For the same compound, the “number of egg masses (galls) on roots, Replicate 2” value (“number of egg masses … Replicate 2” below) in data set [3] (50 μM) is listed as 25. Further, the “Root knot count, average of the replicate counts” value (“Root knot count, average” for short) in the data set on Meloidogyne incognita is 9.5.
Turning to `c1coc(-c2nc3ccccc3[nH]2)c1` [XVI], the “# crops emerged (max 18)” value in data set [4] (Rate 0.05 mg) stood at 18. For the same compound, in the data set on Heterodera nematode (Rate 0.05 mg), the “crop height (cm)” value was determined as 13 cm and the “crop vigor (max 100%)” value was 90%. Moreover, in data set [3] (10 μM), the “number of egg masses … Replicate 2” value was 50. Further, in data set [3] (50 μM), the “number of egg masses … Replicate 2” value is recorded as 40 and the “number of egg masses … Replicate 3” value amounted to 15. The “Root knot count, average” value with Meloidogyne incognita was 14.5.
Regarding `CC(C)NC(=O)N1CC(=O)N(c2cc(Cl)cc(Cl)c2)C1=O` [XXV], the “Average yield of marketable fruits” value is recorded as 1.45 kg/plant/pot in data set [5] (setting [6]), 1.33 kg/plant/pot in data set [5] (setting [7]), 6.7 kg/plant/pot in data set [1] (Product Rate 500 g ai/ha) and 9.1 kg/plant/pot in data set [1] (Product Rate 1500 g ai/ha). The Average root galling in data set [5] (setting [6]) is given as 1.8; in data set [5] (setting [7]), 1.3; in data set [1] (Product Rate 500 g ai/ha), 2.75; in data set [1] (Product Rate 1500 g ai/ha), 1.75. The figures for the “number of egg masses (galls) on roots, Replicate 1” value in data set [3] (10 μM) and in data set [3] (50 μM) were 50 and 30, respectively. For the same compound, the “number of egg masses … Replicate 2” value amounted to 50 in data set [3] (10 μM) and 25 in data set [3] (50 μM). Further, the “number of egg masses … Replicate 3” value in data set [3] (50 μM) is listed as 20. Moreover, the “Root knot count, average” value with Meloidogyne incognita worked out at 17.
Consider `CC(C)[C@@H](Nc1ccc(C(F)(F)F)cc1Cl)C(=O)OC(C#N)c1cccc(Oc2ccccc2)c1` (stereo partly drawn) [XXXVI], for which the “# crops emerged (max 18)” value in data set [4] (Rate 0.05 mg), in data set [4] (Rate 0.2 mg), in data set [4] (Rate 1 mg) and in data set [4] (Rate 5 mg) was 18 each time. The “Average yield of marketable fruits” value in data set [5] (setting [8]) was found to be 1.43 kg/plant/pot; in data set [5] (setting [9]), 1.26 kg/plant/pot; in data set [1] (Product Rate 250 g ai/ha), 9.3 kg/plant/pot; in data set [1] (Product Rate 500 g ai/ha), 9.6 kg/plant/pot. The Average root galling in data set [5] (setting [8]) turned out to be 1.8; in data set [5] (setting [9]), 1.8; in data set [1] (Product Rate 250 g ai/ha), 1.88; in data set [1] (Product Rate 500 g ai/ha), 1.63. The “crop height (cm)” value in the data set on Heterodera nematode (Rate 0.05 mg) is recorded as 9 cm; with Heterodera nematode (Rate 0.2 mg), 14 cm; in the data set with Heterodera nematode (Rate 1 mg), 15 cm; with Heterodera nematode (Rate 5 mg), 13 cm. Further, the “crop vigor (max 100%)” value in the data set with Heterodera nematode (Rate 0.05 mg) amounted to 70%; in the data set on Heterodera nematode (Rate 0.2 mg) it was 100%; in the data set with Heterodera nematode (Rate 1 mg) it was 100%; in the data set with Heterodera nematode (Rate 5 mg) it was 90%. Further, in the data set on Meloidogyne incognita, the “Root knot count, average” value was 0.

The values are drawn from patent US20090209605A1, “NEMATICIDAL COMPOSITIONS” (Devgen N.V., priority 2004, published 2009).
